Results reported in patent US8410289B2, “Spirocyclic 3'-alkoxytetramic acids and-tetronic acids” (Bayer Cropscience AG, priority 2004, dated 2013).
Values belong to the molecule of their own block, whether it stands above or below them.

Tests used:
Summer wheat = assay: Herbicidal post-emergence action with/without safener (Example H, container trials with cereals, greenhouse or outdoors); type: in vivo
Description: (§1) Herbicidal Post-Emergence Action
(§2) Seeds of monocotyledonous and dicotyledonous weed and crop plants are placed into sandy loam in wood fibre pots or in plastic pots, covered with soil and cultivated in a greenhouse, during the vegetation period also outdoors outside of the greenhouse, under good growth conditions. 2-3 weeks after sowing, the test plants are treated at the one- to three-leaf stage. The test compounds, formulated as wettable powders (WP) or emulsifiable concentrates (EC) are, in various dosages with a water application rate of 300 l/ha (converted), with wetting agent (0.2 to 0.3%) added, sprayed onto the plants and the surface of the soil. 3-4 weeks after the treatment of the test plants, the effect of the preparations is rated visually in comparison to untreated controls (herbicidal effect in per cent (%): 100%=the plants have died, 0% effect=like control plants).
(§3) If it is additionally to be tested as to whether safeners can improve the crop plant compatibility of test substances in the case of crop plants, the following options are used for applying the safener: • seeds of the crop plants are, before sowing, dressed with the safener substance (the amount of safener stated in per cent, based on the weight of the seed) • before the application of the test substances, the crop plants are sprayed with the safener at a certain application rate per hectare (usually 1 day before the application of the test substances) • the safener is applied together with the test substance as a tank mix (the amount of safener is stated in g/ha or as a ratio, based on the herbicide).
(§4) By comparing the effect of the test substances on crop plants without or with safener treatment, it is possible to assess the effect of the safener substance.

barley = assay: as above; type: in vivo
Description: as §1, §2, §3, §4

maize = assay: Herbicidal post-emergence action with/without safener (Example H, container trials with maize in a greenhouse); type: in vivo; details: 12.5 g of a.i./ha, without safener
Description: as §1
as §2, with “plants). […]” for “plants).”

[1] = log P determination by HPLC on reverse-phase column (C 18), EEC-Directive 79/831 Annex V.A8; type: physicochemical
Description: • The log P values given in the tables and preparation examples above are determined in accordance with EEC-Directive 79/831 Annex V.A8 by HPLC (High Performance Liquid Chromatography) on a reverse-phase column (C 18). Temperature: 43° C.
The determination is carried out in the acidic range at pH 2.3 using the mobile phases 0.1% aqueous phosphoric acid and acetonitrile; linear gradient from 10% acetonitrile to 95% acetonitrile.
The LC-MS determination in the acidic range is carried out at pH 2.7 using the mobile phases 0.1% aqueous formic acid and acetonitrile (contains 0.1% formic acid); linear gradient from […] acetonitrile to 95% acetonitrile.
The LC-MS determination in the neutral range is carried out at pH 7.8 using the mobile phases 0.001 molar aqueous ammonium bicarbonate solution and acetonitrile; linear gradient from 10% acetonitrile to 95% acetonitrile.
The calibration is carried out using unbranched alkan-2-ones (with 3 to 16 carbon atoms) with known log P values (determination of the log P values by retention times using linear interpolation between two successive alkanones).

[2] = greenhouse, 25 g of a.i./ha, without safener
[3] = greenhouse, 50 g of a.i./ha, without safener
[4] = greenhouse, 3.125 g of a.i./ha, without safener
[5] = greenhouse, 6.25 g of a.i./ha, without safener
[6] = greenhouse, 100 g of a.i./ha, without safener
[7] = greenhouse, 12.5 g of a.i./ha, without safener
[8] = outdoors, 12.5 g of a.i./ha, without safener (trial with mefenpyr 1 day prior)
[9] = outdoors, 25 g of a.i./ha, without safener (tank mix trial)
[10] = outdoors, 25 g of a.i./ha, without safener (trial with mefenpyr 1 day prior)
[11] = outdoors, 50 g of a.i./ha, without safener (tank mix trial)
[12] = outdoors, 50 g of a.i./ha, without safener (trial with mefenpyr 1 day prior)
[13] = outdoors, 100 g of a.i./ha, without safener (tank mix trial), listed as Ex. I-1-a-43
[14] = outdoors, 100 g of a.i./ha, without safener (trial with mefenpyr 1 day prior)
[15] = tank mix post-emergence, 20 g of a.i./ha, without safener
[16] = tank mix post-emergence, 80 g of a.i./ha, without safener
[17] = outdoors, 100 g of a.i./ha, without safener (tank mix trial), listed as Ex. I-1-a-1
[18] = compounds of formula (I-2-a); generally isomer mixtures; those marked 1) were separated into cis and trans diastereomers

SMILES: COC1CCCC2(C1)NC(=O)C(c1c(C)cc(C)cc1C)=C2O (mixture of isomers) [Example I-1-a-2]
Summer wheat observed (%) (Summer wheat; container trial in a greenhouse, application rate 100 g of a.i./ha, without safener): 60%

SMILES: CCCCOC1CCCC2(C1)NC(=O)C(c1c(Cl)cc(Br)cc1CC)=C2OC(=O)COC (single isomer, unassigned) [Ex. I-1-b-8]
Summer wheat observed (%) (Summer wheat; [2]): 30% | Summer wheat observed (%) (Summer wheat; [3]): 50% | Summer barley observed (%) (barley; [2]): 30% | Summer barley observed (%) (barley; [3]): 70%

SMILES: CCCCOC1CCCC2(C1)NC(=O)C(c1c(Cl)cc(Br)cc1CC)=C2OC(=O)C(C)C (single isomer, unassigned) [Ex. I-1-b-9]
Summer wheat observed (%) (Summer wheat; [2]): 20% | Summer wheat observed (%) (Summer wheat; [3]): 90% | Summer barley observed (%) (barley; [2]): 30% | Summer barley observed (%) (barley; [3]): 90%

SMILES: CCc1cc(C)cc(Br)c1C1=C(OC(=O)C(C)C)C2(CCCC(OC)C2)NC1=O (single isomer, unassigned) [Ex. I-1-b-11]
Summer wheat observed (%) (Summer wheat; [2]): 10% | Summer wheat observed (%) (Summer wheat; [3]): 70%

SMILES: CCCCOC1CCCC2(C1)NC(=O)C(c1c(Br)cc(C)cc1CC)=C2OC(=O)COC (single isomer, unassigned) [Ex. I-1-b-14]
Summer wheat observed (%) (Summer wheat; [4]): 20% | Summer wheat observed (%) (Summer wheat; [5]): 30%

SMILES: CCOC(=O)OC1=C(c2c(Br)cc(C)cc2CC)C(=O)NC12CCCC(OCC)C2 (single isomer, unassigned) [Ex. I-1-c-9]
Summer wheat observed (%) (Summer wheat; [3]): 30% | Summer wheat observed (%) (Summer wheat; [6]): 60%

SMILES: CCOC(=O)OC1=C(c2c(Br)cc(C)cc2CC)C(=O)NC12CCCC(OC)C2 (single isomer, unassigned) [Ex. I-1-c-10]
Summer wheat observed (%) (Summer wheat; [7]): 60% | Cecilia Mais observed (%) (maize): 40%

SMILES: CCCOC1CCCC2(C1)NC(=O)C(c1c(Br)cc(C)cc1CC)=C2O (single isomer, unassigned) [Example I-1-a-12]
Summer wheat observed (%) (Summer wheat; [5]): 10% | Summer wheat observed (%) (Summer wheat; [7]): 97% | Summer barley observed (%) (barley; [4]): 30% | Summer barley observed (%) (barley; [5]): 97% | Summer barley observed (%) (barley; [7]): 99%

SMILES: CCc1cc(C)cc(Br)c1C1=C(O)C2(CCCC(OC)C2)NC1=O (single isomer, unassigned) [Example I-1-a-14]
Summer wheat observed (%) (Summer wheat; [7]): 30% | Summer wheat observed (%) (Summer wheat; [2]): 93% | Summer barley observed (%) (barley; [7]): 30% | Summer barley observed (%) (barley; [2]): 93%

SMILES: CCCCOC1CCCC2(C1)NC(=O)C(c1c(Br)cc(C)cc1CC)=C2O (single isomer, unassigned) [Example I-1-a-17]
Summer wheat observed (%) (Summer wheat; [5]): 10% | Summer wheat observed (%) (Summer wheat; [7]): 60% | Summer wheat observed (%) (Summer wheat; [2]): 70%

SMILES: CCOC1CCCC2(C1)NC(=O)C(c1c(Br)cc(C)cc1CC)=C2O (single isomer, unassigned) [Example I-1-a-18]
Summer wheat observed (%) (Summer wheat; [4]): 30% | Summer wheat observed (%) (Summer wheat; [5]): 40% | Summer wheat observed (%) (Summer wheat; [7]): 95% | Summer barley observed (%) (barley; [5]): 50% | Summer barley observed (%) (barley; [7]): 93%

SMILES: CCCOC1CCCC2(C1)NC(=O)C(c1c(C)cc(C)cc1C)=C2O (single isomer, unassigned) [Example I-1-a-19]
Summer barley observed (%) (barley; [3]): 25% | Summer barley observed (%) (barley; [6]): 30%

SMILES: CCCCOC1CCCC2(C1)NC(=O)C(c1c(C)cc(C)cc1C)=C2O (single isomer, unassigned) [Example I-1-a-43]
Summer wheat observed (%) (Summer wheat; [8]): 30% | Summer wheat observed (%) (Summer wheat; [9]): 40% | Summer wheat observed (%) (Summer wheat; [10]): 60% | Summer wheat observed (%) (Summer wheat; [11]): 50% | Summer wheat observed (%) (Summer wheat; [12]): 15% | Summer wheat observed (%) (Summer wheat; [13]): 60% | Summer wheat observed (%) (Summer wheat; [14]): 30% | Summer barley observed (%) (barley; [8]): 10% | Summer barley observed (%) (barley; [9]): 40% | Summer barley observed (%) (barley; [10]): 70% | Summer barley observed (%) (barley; [11]): 50% | Summer barley observed (%) (barley; [12]): 20% | Summer barley observed (%) (barley; [13]): 60% | Summer barley observed (%) (barley; [14]): 30% | Summer barley (Scarlett) observed (%) (barley; [15]): 30% | Winter barley observed (%) (barley; [15]): 20% | Summer barley (Baronesse) observed (%) (barley; [16]): 30% | Winter barley observed (%) (barley; [16]): 30%

SMILES: CCCCOC1CCCC2(C1)NC(=O)C(c1c(C)cc(C)cc1C)=C2O (centres unmarked) [Example I-1-a-1]
Summer wheat observed (%) (Summer wheat; [17]): 35% | Summer barley observed (%) (barley; [17]): 70%

SMILES: COc1cc(C)cc(C)c1C1=C(OC(=O)OC(C)C)C2(CCCC(OC)C2)OC1=O (centres unmarked) [Example I-2-c-6]
logP ([1]; HPLC reverse-phase C 18, acidic range pH 2.3, 43° C.): 3.90

SMILES: COC1CCCC2(C1)OC(=O)C(c1c(Br)cc(C)cc1Br)=C2O (centres unmarked) [I-2-a-19]
logP [1, 18]: 2.51

SMILES: COC1CCCC2(C1)OC(=O)C(c1cc(Br)ccc1C)=C2O (centres unmarked) [I-2-a-23]
logP [1, 18]: 2.30

SMILES: COC1CCCC2(C1)OC(=O)C(c1ccc(Cl)cc1C(F)(F)F)=C2O (centres unmarked) [I-2-a-24]
logP [1, 18]: 2.37

SMILES: COC1CCCC2(C1)OC(=O)C(c1c(C)cccc1Cl)=C2O (centres unmarked) [I-2-a-25]
logP [1, 18]: 1.92

SMILES: COC1CCCC2(C1)OC(=O)C(c1c(Cl)cc(Br)c(C)c1Cl)=C2O (centres unmarked) [I-2-a-53]
logP [1, 18]: 2.70

Results, then the molecule that gave them:

logP [1, 18]: 4.24
SMILES: CCCCOC1CCCC2(C1)OC(=O)C(c1c(CC)cc(Br)cc1CC)=C2O (centres unmarked) [I-2-a-55]

logP [1, 18]: 3.32
SMILES: CCCCOC1CCCC2(C1)OC(=O)C(c1ccc(C)cc1Cl)=C2O (centres unmarked) [I-2-a-56]

logP [1, 18]: 3.03
SMILES: CCCCOC1CCCC2(C1)OC(=O)C(c1ccccc1C)=C2O (centres unmarked) [I-2-a-57]

logP [1, 18]: 3.32
SMILES: CCCCOC1CCCC2(C1)OC(=O)C(c1ccc(C)cc1C)=C2O (centres unmarked) [I-2-a-58]

logP [1, 18]: 3.57
SMILES: CCCCOC1CCCC2(C1)OC(=O)C(c1cc(C)c(C)cc1Br)=C2O (centres unmarked) [I-2-a-59]

logP [1, 18]: 3.49
SMILES: CCCCOC1CCCC2(C1)OC(=O)C(c1c(C)cc(C)cc1Cl)=C2O (centres unmarked) [I-2-a-60]

logP [1, 18]: 3.76
SMILES: CCCCOC1CCCC2(C1)OC(=O)C(c1c(C)cc(C)c(C)c1C)=C2O (centres unmarked) [I-2-a-61]

logP [1, 18]: 3.36
SMILES: CCCCOC1CCCC2(C1)OC(=O)C(c1cc(C)ccc1C)=C2O (centres unmarked) [I-2-a-62]

logP [1, 18]: 3.99
SMILES: CCCCOC1CCCC2(C1)OC(=O)C(c1c(C)cc(Br)cc1CC)=C2O (centres unmarked) [I-2-a-63]
